From US8097624B2, “Cycloalkyl derivatives of 3-hydroxy-4-pyridinones” (Apotex Inc., priority 2006, dated 2012)
Several values for one entry are separate records, joined by “and”; a condition that tells them apart may be missing. Equal entries are not always repeated.

Legend:
[1] = Distribution coefficient determination (D7.4), 1-octanol / MOPS buffer; assay type: physicochemical; conditions: 1-octanol / MOPS buffer pH 7.4
Description: MOPS buffer (50 mM, pH=7.4) and 1-octanol were used as the aqueous phase and the organic phase, respectively, for distribution coefficient determinations. The MOPS buffer and 1-octanol were pre-saturated with each other before use.
In a typical experiment, an organic stock solution of Apo6618 (1-cyclopropyl-3-hydroxy-6-methyl-4-oxo-1,4-dihydro-pyridine-2-carboxylic acid cyclopropylamide) was prepared by weighing out 0.50 mg of the compound into a 10-mL volumetric flask and bringing to volume with 1-octanol. The solution was then sonicated for 60 minutes so that the sample could dissolve completely. The concentration of the stock solution was calculated as C^0org=2.0×10^−4 M. The organic standard solution of Apo6618 with 2.0×10^−5 M was prepared in a 10-mL volumetric flask by 10 times dilution of the stock solution with 1-octanol. The sample solution was prepared in a 10-mL volumetric flask. The stock sample solution (3 ml) was pipetted into the flask followed by the addition of MOPS buffer (3 ml). The standard and sample solutions were then vortexed for 2 hours. After vortexing, the solutions were transferred to test tubes and centrifuged at 4000 rpm for 15 minutes. UV-Vis spectra were recorded for the standard solution and the organic (top) phase of the sample solution at 22° C. The distribution coefficient, D7.4, was calculated using the following equation: D7.4=[Aorg/(C^0orgεorg−Aorg)]×(Vaqu/Vorg)
Where εorg=the molar extinction coefficient of the peak wavelength (λmax) obtained from the UV-Vis spectrum of the organic standard solution; Aorg=absorbance of the organic phase in the sample solution at the same λmax; C^0org=the concentration of the stock solution; Vaqu=the volume of MOPS buffer in the sample solution; Vorg=the volume of the stock solution in the sample solution.

[2] = pKa determination by potentiometric or spectrophotometric titration; assay type: physicochemical; conditions: titration in 0.1 M NaCl at 22° C.
Description: The pKa values of ligands were determined by potentiometric titration when a ligand concentration greater than 1×10^−2 M in water could be prepared. In a typical experiment, the sample solution (2.67×10^−2 M) was prepared by the following method: Apo6619 (92.6 mg) was weighed into a 25-ml beaker, followed by the addition of 0.1 M NaCl (15 ml). The mixture was sonicated for 10 minutes to give a clear colorless solution. Nitrogen gas was then allowed to bubble through the solution. 1.000 N Hydrochloric acid (624 μl, 1.5 equivalent) was added to the solution to give pH 1.88. The solution was allowed to equilibrate at 22° C. for 60 minutes.
The solution was then titrated against 1.000 N NaOH at 22° C. to reach pH 11.8. For each addition of base, the solution was allowed to equilibrate until a constant pH reading was reached. The volume of the base added and the pH reading were recorded for each measurement. 137 measurements were taken to finish the experiment.
The data set of pH vs. base volume was analyzed using Hyperquad 2000 (Version 2.1, Peter Gans, University of Leeds).
The pKa values of ligands can be determined by spectrophotometric titration when both the conjugated acid and base absorb in the UV-Visible region. In a typical experiment, the sample solution was prepared by the following method: Apo6617 (0.792 mg) was weighed into an 80-ml beaker, followed by the addition of 0.1 M NaCl (50 ml). The mixture was sonicated for 5 minutes to give a clear colorless solution. Nitrogen gas was allowed to bubble through the solution. 1.000 N NaOH (50 μl) was added to give pH 10.9. The solution was allowed to equilibrate at 22° C. for 1 hour. A sipper system was used for the circulation of the sample solution between the beaker and the flow cell.
The sample solution was titrated against standard hydrochloric acid solutions at 22° C. to reach pH 1.40. After each addition of acid the solution was allowed to equilibrate until a constant pH reading was reached. The pH and the UV-Vis spectrum were recorded for each measurement. The peak wavelengths of the deprotonated species (L^−), the neutral species (LH), and the protonated species (LH2^+) were 314 nm, 281 nm, and 249 nm, respectively. In the region of pH>6, after each addition of acid there was a slight decrease in the absorbance at 314 nm and a slight increase at 281 nm in each spectrum, whereas in the region of pH<5, after each addition of acid there was a slight decrease in the absorbance at 281 nm and a slight increase at 249 nm in each spectrum. The solution was titrated until there was no obvious change in the spectra after several subsequent additions of acid. 116 measurements were taken to finish the experiment.
The resulting data set was then analyzed using pHAB (Peter Gans, University of Leeds).

Iron Overloaded Rats = assay: Second rat study: urinary and fecal iron excretion at 28, 113 and 450 μmoles/kg; assay type: in vivo; conditions: n=6/group, mean ± 1SD
Description: A second study was conducted to confirm the efficacy results of Apo6619 and Apo6617 observed in the above study and to further characterize the efficacy of these compounds at doses lower than 450 μmol/kg. The study was conducted in two separate groups of iron overloaded rats. The method of iron overloading, preparation of dosing solutions and assessment of efficacy in these rats was similar to that described in the above study.
The first group of rats (n=6) were treated with Apo6619 consecutively at doses of 28, 113 and 450 μmoles/kg. Similarly, the second group of rats (also n=6) was treated with Apo6617 at these same three doses. Similar to the previous study, both Apo6619 and Apo6617 produced an increase in urinary iron excretion at the 450 μmoles/kg dose (Apo6619: 11±3 at baseline to 335±76 1-day post-Apo6619, p=0.0001; Apo6617: 14±4 at baseline to 183±20 1-day post-Apo6617, p=0.0003). […] At 28 μmoles/kg, only Apo6617 produced an increase in iron excretion (p=0.01) above baseline. However, the magnitude of the increased excretion was small for both Apo6619 and Apo6617.

## Cc1cc(=O)c(O)c(C(=O)NC2CC2)n1C [Apo6617, 3-Hydroxy-1,6-dimethyl-4-oxo-1,4-dihydro-pyridine-2-carboxylic Acid Cyclopropylamide]
[1]
  D7.4: 0.099
[2]
  pKas (higher value, phenolic C3 OH): 8.6 and 8.5
  pKas (lower value, LH2+): 2.5 and 2.4
Iron Overloaded Rats; 28 μmol/kg
  Iron excretion, Urine (1 day post-chelator): 24 ± 6 µg/day/kg
Iron Overloaded Rats; 113 μmol/kg
  Iron excretion, Feces (3 days): 2411 ± 335 µg/day/kg
  Iron excretion, Urine (1 day post-chelator): 28 ± 8 µg/day/kg
Iron Overloaded Rats; 450 μmol/kg
  Iron excretion, Feces (3 days): 3228 ± 437 µg/day/kg
  Iron excretion, Urine (1 day post-chelator): 183 ± 20 µg/day/kg
other
  melting point: 260 to 262 °C

## CNC(=O)c1c(O)c(=O)cc(C)n1C1CC1 [Apo6619, 1-Cyclopropyl-3-hydroxy-6-methyl-4-oxo-1,4-dihydro-pyridine-2-carboxylic Acid Methylamide]
[1]
  D7.4: 0.109
Iron Overloaded Rats; 28 μmol/kg
  Iron excretion, Urine (1 day post-chelator): 14 ± 4 µg/day/kg
Iron Overloaded Rats; 113 μmol/kg
  Iron excretion, Feces (3 days): 3033 ± 1076 µg/day/kg
  Iron excretion, Urine (1 day post-chelator): 51 ± 15*τ μg/day/kg
Iron Overloaded Rats; 450 μmol/kg
  Iron excretion, Feces (3 days): 3831 ± 790 µg/day/kg
  Iron excretion, Urine (1 day post-chelator): 335±76 μg/day/kg and 335 ± 76*τ μg/day/kg
other
  melting point: 258 to 260 °C (dec.)

## Cc1c(O)c(=O)ccn1C [deferiprone, 1,2-dimethyl-3-hydroxy-4-pyridinone, reference compound]
[2]
  pKas (higher value, phenolic C3 OH): 9.64
  pKas (lower value, LH2+): 3.56
